{
  "source": "BindingDB's records for doi:10.1021/jm980260f",
  "about": "(Sapienza University of Rome, 1999)",
  "biological_target": "T1, Gag-Pol polyprotein [588-1027]/[588-1147] (Human immunodeficiency virus 1, UniProt P04585)",
  "T1 construct": "588-1027; 588-1147",
  "assay": "HIV-1 RT Assay",
  "conditions": "pH 7.8; 37 °C",
  "data": [
    {"smiles": "CCC(C)Sc1nc(O)cc(Cc2c(Cl)cccc2Cl)n1", "note": "(stereo unspecified) [2-(butan-2-ylsulfanyl)-6-[(2,6-dichlorophenyl)methyl]-3,4-dihydropyrimidin-4-one]", "values": [
      {"measurement": "IC50", "value": 100, "unit": "nM"}
    ]}
  ]
}
